Assay results taken from PubChem BioAssay (NCI).
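Test compounds were applied to cells in 96-well plates for 48 hours at 5 doses. The concentration for 50% growth inhibition is given as GI50. The concentration for full growth arrest is given as TGI.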

What was measured:
Experiment in all cases: NCI-60 cell line screen, 48 h
[1] = tested on: DU-145 prostate
[2] = tested on: HL-60(TB) leukemia
[3] = tested on: UACC-62 melanoma
[4] = tested on: IGROV1 ovarian
[5] = tested on: 786-0 renal
[6] = tested on: HOP-62 NSCLC
[7] = tested on: EKVX NSCLC
[8] = tested on: SW-620 colon
[9] = tested on: SNB-75 CNS
[10] = tested on: MALME-3M melanoma
[11] = tested on: NCI/ADR-RES ovarian
[12] = tested on: HCT-15 colon
[13] = tested on: SF-295 CNS
[14] = tested on: OVCAR-4 ovarian
[15] = tested on: U251 CNS
[16] = tested on: NCI-H23 lung
[17] = tested on: MCF7 breast
[18] = tested on: KM12 colon
[19] = tested on: ACHN renal
[20] = tested on: SK-MEL-28 melanoma
[21] = tested on: HS 578T breast
[22] = tested on: M14 melanoma
[23] = tested on: SK-OV-3 ovarian
[24] = tested on: SK-MEL-5 melanoma
[25] = tested on: TK-10 renal
[26] = tested on: UO-31 renal
[27] = tested on: CCRF-CEM leukemia
[28] = tested on: SF-268 CNS
[29] = tested on: SK-MEL-2 melanoma
[30] = tested on: A549 NSCLC
[31] = tested on: UACC-257 melanoma
[32] = tested on: COLO 205 colon
[33] = tested on: SNB-19 CNS
[34] = tested on: RXF 393 renal
[35] = tested on: HCT-116 colon
[36] = tested on: HCC-2998 colon
[37] = tested on: K-562 leukemia
[38] = tested on: SF-539 CNS
[39] = tested on: MDA-MB-231 breast
[40] = tested on: NCI-H460 lung
[41] = tested on: NCI-H226 lung
[42] = tested on: RPMI-8226 leukemia
[43] = tested on: SN12C renal
[44] = tested on: MDA-MB-435
[45] = tested on: T-47D breast
[46] = tested on: A498 renal
[47] = tested on: OVCAR-5 ovarian
[48] = tested on: HT29 colon
[49] = tested on: HOP-92 NSCLC
[50] = tested on: PC-3 prostate
[51] = tested on: NCI-H522 lung
[52] = tested on: SR leukemia
[53] = tested on: MOLT-4 leukemia
[54] = tested on: CAKI-1 renal
[55] = tested on: OVCAR-8 ovarian

Compound `N#Cc1cccc(NC(=O)c2cc(-c3ccc(F)cc3F)ccc2O)c1` has a GI50 [1] of 2.63 µM, a TGI [1] greater than 100 µM and a GI50 [2] of 1.8 µM. For the same compound, the TGI [2] was 5.27 µM, the GI50 [3] was 0.522 µM and the TGI [3] was 2.7 µM. The GI50 [4] was 2.6 µM, the TGI [4] was greater than 100 µM and the GI50 [5] was 3.06 µM. The TGI [5] was 10.7 µM, the GI50 [6] was 2.39 µM and the TGI [6] was 7.96 µM. For the same compound, the GI50 [7] was 2.68 µM, the TGI [7] was 9.32 µM and the GI50 [8] was 2.99 µM. The TGI [8] was 17.1 µM, the GI50 [9] was 1.29 µM and the TGI [9] was 3.88 µM. The GI50 [10] was 1.01 µM, the TGI [10] was 4 µM and the GI50 [11] was 2.11 µM. For the same compound, the TGI [11] was 9.92 µM, the GI50 [12] was 1.9 µM and the TGI [12] was 6.93 µM. For the same compound, the GI50 [13] was 1.96 µM, the TGI [13] was 4.44 µM and the GI50 [14] was 0.899 µM. It also gave a TGI [14] of 14.2 µM, a GI50 [15] of 2.56 µM and a TGI [15] of 25.5 µM. It also gave a GI50 [16] of 1.49 µM, a TGI [16] of 6.23 µM and a GI50 [17] of 1.87 µM. For the same compound, the TGI [17] was 10.7 µM, the GI50 [18] was 2.72 µM and the TGI [18] was 8.24 µM. The GI50 [19] was 2.65 µM, the TGI [19] was 10.1 µM and the GI50 [20] was 1.38 µM. The GI50 [21] was 2.02 µM, the TGI [21] was 7.21 µM and the GI50 [22] was 2.25 µM. It also gave a TGI [22] of 8.89 µM, a GI50 [23] of 2.35 µM and a TGI [23] of 8.88 µM. It also gave a GI50 [24] of 0.507 µM, a TGI [24] of 1.94 µM and a GI50 [25] of 3.49 µM. The TGI [25] was 15.7 µM, the GI50 [26] was 1.82 µM and the TGI [26] was 9.03 µM. For the same compound, the GI50 [27] was 3.25 µM, the TGI [27] was 19.3 µM and the GI50 [28] was 2.38 µM. For the same compound, the TGI [28] was 20.7 µM, the GI50 [29] was 0.768 µM and the TGI [29] was 3.85 µM. For the same compound, the GI50 [30] was 3.52 µM, the TGI [30] was greater than 100 µM and the GI50 [31] was 0.893 µM. It also gave a TGI [31] of 5.32 µM, a GI50 [32] of 11.5 µM and a TGI [32] of 25.1 µM. For the same compound, the GI50 [33] was 2.37 µM, the TGI [33] was 14.3 µM and the GI50 [34] was 2.25 µM. The TGI [34] was 6.6 µM, the GI50 [35] was 1.89 µM and the TGI [35] was 8.91 µM. The GI50 [36] was 3.22 µM, the TGI [36] was 12.4 µM and the GI50 [37] was 1.51 µM. For the same compound, the TGI [37] was greater than 100 µM, the GI50 [38] was 2.54 µM and the GI50 [39] was 2.12 µM. For the same compound, the TGI [39] was 5.93 µM, the GI50 [40] was 1.42 µM and the TGI [40] was 13.3 µM. The GI50 [41] was 1.86 µM, the TGI [41] was 7.36 µM and the GI50 [42] was 0.562 µM. The TGI [42] was 3.17 µM, the GI50 [43] was 1.44 µM and the TGI [43] was 6.46 µM. The GI50 [44] was 1.37 µM, the TGI [44] was 6.32 µM and the GI50 [45] was 0.496 µM. The TGI [45] was 6.57 µM, the GI50 [46] was 0.374 µM and the TGI [46] was 2.12 µM. For the same compound, the GI50 [47] was 3.39 µM, the TGI [47] was 30.2 µM and the GI50 [48] was 5.71 µM. It also gave a TGI [48] greater than 100 µM, a GI50 [49] of 0.338 µM and a TGI [49] of 1.93 µM. For the same compound, the GI50 [50] was 2.89 µM, the TGI [50] was 17.9 µM and the GI50 [51] was 0.642 µM. The TGI [51] was 10.9 µM, the GI50 [52] was 2.91 µM and the TGI [52] was 23.2 µM. It also gave a GI50 [53] of 2.55 µM, a TGI [53] of 8.6 µM and a GI50 [54] of 1.31 µM. For the same compound, the TGI [54] was 4.74 µM, the GI50 [55] was 2.88 µM and the TGI [55] was greater than 100 µM.
